In US20040123348A1, “Method for producing a plant with a high-growth rate” (priority 2002, published 2004):

Legend:
[1] = system: OsHDAC1 transcription product; experiment: Effect of ABA treatment on expression of OsHDAC1 transcription product in leaves of Ai::OsHDAC1 rice plant; assay type: cell-based; details: 20 μM ABA, MS medium
Procedure: While leaves of Ai::OsHDAC1 rice plant produced by above Example 5 was incubated in MS medium with or without 20 μM ABA, a total RNA was isolated from leaves at regular intervals to examine the expression level of OsHDAC1 transcription product. As the result, it was identified that the expression of the transcription product reaches at the maximum level one hour after ABA treatment and rapidly decreases after 6 hours. Then, callus cells, leaves and roots of rice plant were incubated in MS medium with or without 20 μM ABA for one hour, and a total RNA was extracted. […] Further, the same result could be confirmed from Western blot analysis of OsHDAC1 protein.

[2] = system: untransformed rice plant; experiment: Phenotype and growth in MS medium with 20 μM ABA, untransformed rice plant; assay type: in vivo; details: 2 weeks
Procedure: (§1) In order to investigate the effect of overexpression of OsHDAC1 on the phenotype and growth of Ai::OsHDAC1 rice plant, Ai::OsHDAC1 rice plant was incubated as the first generation and then, young seedlings or calluses at the second generation were transferred to MS medium with or without 20 μM ABA and incubated for 2 weeks. After incubation, the whole shape of rice plant, and leaves, collars and roots were observed. As the control group, untransformed rice plant was also observed. FIGS. 6a, 6b, 6c and 6d are photographs showing the growth and morphological change of Ai::OsHDAC1 rice plant, the change in the growth of leaves, the change of collars and the change of roots, respectively. In each drawing, NT denotes untransformed rice plant and lanes 2, 3 and 4 in FIGS. 6b, 6c and 6d denote respective individuals of transformed Ai::OsHDAC1 rice plant.

[3] = system: Ai::OsHDAC1 rice plant; experiment: Phenotype and growth in MS medium with 20 μM ABA, Ai::OsHDAC1 rice plant; assay type: in vivo; details: 2 weeks
Procedure: as §1

[4] = system: histone deacetylase; experiment: Effect of tricostatin A (TSA) treatment on histone H4 acetylation, immunoblot of rice callus cells; assay type: cell-based; details: 1 μM TSA with 20 μM ABA, 1 to 6 hours
Procedure: Rice callus cells, leaves and roots were incubated in MS medium with (+) or without (−) 20 μM ABA for one hour, transferred to MS medium containing 20 μM ABA and 1 μM TSA, incubated for 1 to 6 hours and then subjected to TSA treatment. Next, about 0.1 g of rice tissues was pulverized, homogenized with a buffer solution containing 50 mM Tris-HCl (pH 8.0), 150 mM NaCl, 10% glycerol, 0.5% Triton X-100, 2 mM phenylmethanesulfonyl fluoride, 1 μg/ml aprotinine, 1 μg/ml pepstatin and 1 μg/ml leupeptin, and then incubated at 4° C. for one hour. After incubation, the mixed solution was centrifuged at 4° C. for 5 minutes, and the protein concentration was determined using Bradford solution (BioRad, USA). The protein extract was separated from 12% SDS gel, transferred to polyvinylidene difluoride (PVDF) membrane (Immobilon-P, Millipore), and then reacted with mouse HDAC1 (mHDAC1), histone H4 (H4), acetylated histone (AcH4), the secondary antibody wherein primary antibody to acetylated histone H4 (AcH4) (Upstate Biotechnology, USA) is combined with alkaline phosphatase. […] Thus, it was confirmed that the expression of tetra-acetylated histone H4 as reduced in Ai::OsHDAC1 rice plant is increased again by TSA treatment.

| SMILES | time after ABA treatment at which expression of the transcription product reaches the maximum level [1] | growth of untransformed plant in the presence of ABA [2] | growth of Ai::OsHDAC1 rice plant in the presence of ABA [3] | total H4 after TSA treatment [4] | expression level of tetra-acetylated histone H4 after TSA treatment ([4]; both Ai::OsHDAC1 and untransformed rice plant callus cells) |
| --- | --- | --- | --- | --- | --- |
| CC1=CC(=O)CC(C)(C)[C@@]1(O)/C=C/C(C)=C\C(=O)O [ABA, abscisic acid] | one | inhibition of growth | increase of growth | – | – |
| CC(/C=C/C(=O)NO)=C\[C@@H](C)C(=O)c1ccc(N(C)C)cc1 [TSA, tricostatin A] | – | – | – | substantially not changed | greatly increased |
